The values below come from publication PMC6931124, “NPY1R-targeted peptide-mediated delivery of a dual PPARα/γ agonist to adipocytes enhances adipogenesis and prevents diabetes progression” (Molecular Metabolism, 2019).

The test system of assay [1] is PPARγ mRNA in liver. As to the kind of experiment: PPARγ mRNA expression in liver. It is filed as in vivo. The settings on record: db/db mice, 2.5 μM/kg/day, 8 days; qRT-PCR relative to control animals. The method, then: The 3T3-L1 or SGBS cells were seeded into 6-well plates and differentiated as previously described. Tesa or peptides were added to the differentiation medium at a concentration of 100 μM on day 2, followed by 12 h or 24 h incubation. On day 4, the cells were washed two times with PBS, harvested by trypsinization, and stored at −70 °C until RNA isolation was performed. […] N ≥ 3 independent experiments with two replicates were performed. For the cell culture experiments, the data were analyzed according to the 2^−ΔΔCt method using 36B4 or GAPDH as housekeeping genes and DMSO treatment as a control. Liver mRNA expression was calculated relative to 18sRNA, which was used as an internal control due to its resistance to glucose-dependent regulation. The mRNA levels were quantified using the standard curve method of QuantStudio 6 Flex software (Applied Biosystems, Foster City, CA, USA), determining the crossing points of the individual samples using an algorithm that identifies the first turning point of the fluorescence curve. Amplification of the specific transcripts was confirmed by the melting curve profiles (cooling the sample to 68 °C and heating slowly to 95 °C while measuring the fluorescence) at the end of each PCR [53]. […]

The nature of assay [2]: Serum adiponectin. It is filed as in vivo. The settings on record: db/db mice, 2.5 μmol/kg/day, 8 days; ELISA; n = 5. The method, then: (§1) All of the experiments were performed according to the animal ethical laws of the state Saxony, Germany, and were approved by the local animal ethics review board (Landesdirektion Sachsen, Leipzig, Germany). Female db/db mice 12–15 weeks of age were purchased from Taconic (Denmark) and housed in groups of 5 in temperature- and humidity-controlled facilities in a 12 h:12 h light–dark cycle and had free access to tap water and food (regular chow, Sniff, Soest, Germany). Three out of seven groups served as controls (N = 15, see Table 1). The 5 db/db mice were untreated and 10 db/db mice were vehicle treated either orally or intraperitoneally (i.p.). One additional group (n = 5) of lean C57BL/6NTac mice was used as a metabolically healthy control group. […]
(§2) Serum insulin (mouse insulin ELISA, Mercodia, Uppsala, Sweden), adiponectin (mouse adiponectin ELISA, AdipoGen, San Diego, CA, USA), leptin (mouse leptin ELISA, Crystal Chem, Downers Grove, IL, USA), and Mcp-1 (mouse/rat CCL2/JE/Mcp-1 Quantikine ELISA, R&D Systems, Minneapolis, MN, USA) levels were analyzed via ELISA according to the manufacturer's instructions. Serum concentrations of TG, FFA, and cholesterol were measured by an automatic chemical analyzer at the Institute of Laboratory Medicine and Clinical Chemistry.
(In general: ELISA stands for enzyme-linked immunosorbent assay.)

The subject of assay [3] is PPARγ. As to the kind of experiment: PPAR reporter gene assay (luciferase). The assay is classed as cell-based. As to the method: HEK293 cells stably expressing NPY1R C-terminally fused to eYFP were seeded into white 96-well plates, grown to 70–80% confluence, and transfected using Lipofectamine 2000 transfection reagent according to the manufacturer's protocol. For luciferase reporter gene assays, 250 ng reporter plasmid, positive control plasmid or negative control plasmid (Cignal PPAR Reporter (luc) Kit), 250 ng PPARγ expression vector, and 250 ng RXRα expression vector were applied in addition to 0.75 μl of Lipofectamine 2000 transfection reagent per well. For selectivity assays, HEK293 cells without stable NPY1R-eYFP transfection and HEK293 NPY1R-eYFP cells without PPARγ transfection were used. After 24 h of transfection, the cells were treated with tesa or peptides for an additional 24 h. […] Luciferase assays were performed using the Dual-Luciferase System Kit according to the manufacturer's instructions. The relative firefly luciferase activity was normalized by the corresponding Renilla luciferase activity, the luciferase activity of the cells transfected with the negative control plasmid, and the DMSO vehicle control. The assays were performed in at least three independent experiments.
Furthermore, plasmids coding for PPARγ and RXRα were transfected. Because PPARγ binds as a heterodimer with RXRα to PPRE-responsive elements, RXRα is needed for PPARγ activity.
Figure 5 Transcriptional activity of the PPAR reporter gene. […] The depicted values represent mean ± SEM from n ≥ 3 independent experiments. All measurements were normalized to the transcriptional activity of DMSO-treated cells expressing all factors (set to […]). Statistical significance was determined by one-way analysis of variance (ANOVA) followed by Dunnett's multiple comparison test, *≤0.05, **p ≤ 0.01, ***p ≤ 0.001.
Background: A reporter such as luciferase makes a cellular process visible.

The nature of assay [4]: Serum Mcp-1. It is filed as in vivo. To be noted: db/db mice, 2.5 μmol/kg/day, 8 days; ELISA; n = 5. As to the method:
as §1, §2

Assay [5] is described as follows: HbA1C. The assay is classed as in vivo. The settings on record: db/db mice, 2.5 μM/kg/day, 8 days. As to the method:
as §1, with “(i.p.).” for “(i.p.). One additional group (n = 5) of lean C57BL/6NTac mice was used as a metabolically healthy control group.”
All of the mice were monitored for 9 days during the treatment period. Body weight, food intake, and water uptake were recorded daily and body composition (lean body mass and whole body fat mass) was recorded at the beginning, middle, and end of the study in the conscious mice using an EchoMRI system (Echo Medical Systems, Houston, TX, USA). At the beginning and end of the treatment period, the HbA1c levels were determined from 5 μl of whole venous blood samples using an automated chemical analyzer at the Institute of Laboratory Medicine and Clinical Chemistry and beta-ketone using an automated glucose monitor (FreeStyle Precision H, Abbott GmbH, Ludwigshafen, Germany). […]

Molecules are shown by their SMILES.

As to `CCO[C@@H](Cc1ccc(OCCc2ccc(OS(C)(=O)=O)cc2)cc1)C(=O)O` [tesa, tesaglitazar], the “expression of PPARγ in the liver” value in assay [1] is “significantly enhanced the expression of PPARγ in the liver”. In assay [2], the “adiponectin, serum” value is “normalization of the plasma concentration”. Moreover, in assay [3] (100 μM, HEK293 NPY1R without PPARγ transfection), the “transcriptional activity in absence of PPARγ” value is given as “complete loss of transcriptional activity”. The “transcriptional activity in absence of NPY1R” value in assay [3] (100 μM, HEK293 without NPY1R, with PPARγ) is “not influenced by NPY1R expression”. The “concentration-response curve / potency in reporter assay” value in assay [3] (HEK293 NPY1R, PPARγ, RXRα, 24 h) was “demonstrated a saturation curve”. Besides, the “relative transcriptional activity (luciferase)” value in assay [3] (HEK293 stably expressing NPY1R, transfected with PPAR reporter, PPARγ, RXRα, 24 h treatment, n ≥ 3) is given as “Concentration-dependent luciferase activity was detected”. For the same compound, the Mcp-1 levels entry in assay [4] was “no significant effect”. In addition, the HbA1C change result in assay [5] (vehicle/untreated increased by approximately 2%, n = 5) is given as “graduated reduced increase”. Further, the diabetes progression entry in assay [5] (12-16 weeks old) is on record as “deceleration of disease progression”.
